# Test results: the OPERA property sets (Mansouri et al. 2018)
# Where a SMILES comes first, the peptide text is derived from it.
row,Compound,logP
1,O=C1c2c(O)cccc2C(=CNc2ccccc2)c2cccc(O)c21,4.96
2,C=C1C(=O)OC2CC(C)C3C4CC(=O)C3(CC12)C1(C4)C(=O)OC2CC(C)C3C=CC(=O)C3(C)C(O)C21 (stereo not given),1.66
3,CCNc1ccncc1S(=O)(=O)NC(=NC#N)NC(C)C,-0.24
4,O=c1cc(CBr)oc(Br)c1O,1.27
5,CC(CO)CNc1[nH]cnc2ncnc1-2 (stereo not given),0.61
6,CCCCNCC(C)O (stereo not given),1.22
7,CC(=O)OCOC(=O)C(C)c1cccc(C(=O)c2ccccc2)c1 (stereo not given),3.4
8,CCC(C)SSc1ncc[nH]1 (stereo not given),2.76
9,CCCCCCOc1ccc(CC(=O)O)cc1OC,3.3
10,CNc1nccn2c(Cc3ccccc3F)nnc12,1.56
11,CC(C)C(N)C(=O)NCC(=O)NC(Cc1ccccc1)C(=O)NC(C(=O)NC(Cc1ccccc1)C(=O)O)C(C)C (stereo not given) (H-VGFVF-OH; configuration not given here),-0.5
12,CCCN(CCCCC(NC(C)=O)C(=O)NCc1ccccc1)C(=O)NCCCl (stereo not given),1.13
13,c1nc(N2CCCC2)c2[nH]cnc2n1,1.68
14,CCOCCOCCOC1CCC(NC(=O)NC23CC4CC(CC(C4)C2)C3)CC1 (stereo not given),2.9
15,CCON=C(C)c1cccc(Oc2nc(OC)cc(OC)n2)c1C(=O)OC,2.96
16,O=C(O)CCCON=C(c1ccccc1)c1ccncn1,1.95
17,COc1ccc(CCNCC(O)CON=C(C2CC2)C2CC2)cc1OC (stereo not given),2.42
18,Nc1ccc(CNC(=O)C2CCCN2C(=O)C(Cc2ccc(Cl)c(Cl)c2)NS(=O)(=O)Cc2ccccc2)cn1 (stereo not given),3.68
19,Cc1oc2cc3oc(=O)cc(C)c3cc2c1C,3.22
20,CCCC(=O)OCC1OC(n2cc(I)c(=O)[nH]c2=O)CC1O (stereo not given),0.88
21,Brc1c2ccccc2c(Br)c2ccccc12,6.29
22,CC(C)CCCCCNc1[nH]cnc2ncnc1-2,4.16

row,Compound,logP
1,COc1ccc(C2Cc3cc(C(F)(F)F)ccc3N(CCN(C)C)C(=O)C2SC(C)=O)cc1 (stereo not given),5.4
2,CCOCCOCCOCCCCCNC(=O)NC12CC3CC(CC(C3)C1)C2,3.6
3,Cc1ccc(Cc2c[nH]cn2)c(C)c1,2.7
4,c1ccc(CCCCNc2[nH]cnc3ncnc2-3)cc1,3.29
5,CCC1C(=O)N(CCN(C)C)c2cccc(C(F)(F)F)c2CC1c1ccc(OC)cc1 (stereo not given),6.3
6,COc1ccccc1OCCN(C)C,1.42
7,ClCC1(CCl)C2C(Cl)C(Cl)C1(CCl)C(Cl)(Cl)C2Cl (stereo not given),5.74
8,CCc1c(O)c(=O)ccn1CCCO,-0.44
9,CNCCC=Cc1cccnc1,1.13
10,COc1cccc(OCC2CN=C(N)O2)c1 (stereo not given),1.34
11,CCCCCNc1ncnc2nc[nH]c12,2.58
12,Cc1ccc(CO)c(C=NNC(=O)c2ccc(N)cc2)c1O,2.16
13,COC(=O)c1cccc(C)c1S(=O)(=O)NC(=O)Nc1nc(OCC(F)(F)F)nc(N(C)C)n1,3.56
14,Clc1ccc(C2(Cn3cncn3)OCC3(CCC4OC4C3)CO2)c(Cl)c1 (stereo not given),1.87
15,Cc1oc2ccc3ccc(=O)oc3c2c1C,2.97
16,CCCCON=C(C)c1cccc(Oc2nc(OC)cc(OC)n2)c1C(=O)OC,4.11
17,NC1=NCC(CN2CCN(c3ccccc3F)CC2)O1 (stereo not given),1.06
18,O=S(=O)(NC(=S)N1CCCCC1)c1cnccc1NC1CCCCCCC1,4.5
19,CN(c1nc2ccccc2s1)C1CCN(CC(O)COc2ccc(F)cc2)CC1 (stereo not given),4.61
20,O=C1C=C(N2CCOCC2)C(=O)N1c1ccc(F)cc1,1.5
21,COc1ccc(C2Cc3c(cccc3C(F)(F)F)N(CCN(C)C)C(=O)C2Cc2ccccc2)cc1 (stereo not given),7.2
22,COc1cc2c(cc1OC)C(C=Cc1ccccc1)=NCC2,3.39

row,Compound,logP
1,C#CCC(O)(c1ccc(C(C)C)cc1)c1cccnc1 (stereo not given),2.16
2,Cc1cc2c(ccc3c(C)cc(=O)oc32)o1,3.08
3,CN(C)CCOC(=O)c1ccc(C(F)(F)F)cc1,2.88
4,CC(CO)N(C)C (stereo not given),0.16
5,NCCCOC1Cc2c(O)cc(O)cc2OC1c1ccc(O)c(O)c1 (stereo not given),0.52
6,Nc1nc(Cl)nc2c1ncn2[C@H]1C[C@H](O)[C@@H](CO)O1,0.02
7,CCCNC(=O)N1C(=O)N(C)CC1O (stereo not given),0.99
8,CCCCCCCCCCCCCCNCCO,5.74
9,CC(C)C(N)C(=O)NCC(=O)NC(Cc1ccccc1)C(=O)NC(Cc1ccccc1)C(=O)O (stereo not given) (H-VGFF-OH; configuration not given here),-0.51
10,CN(C)C(c1ccccc1)c1ccccc1,3.37
11,O=C(O)CCCCON=C(c1cccc(C(F)(F)F)c1)c1ncccn1,2.77
12,Cc1c(O)c(=O)ccn1CCCOC(=O)c1cccnc1,-0.25
13,O=C1CCC(c2ccc(-n3ccnc3)cc2)=NN1,0.96
14,CSCCC(NC(=O)C(N)Cc1ccccc1)C(=O)O (stereo not drawn) (H-Phe-Met-OH; configuration not given here),-1.59
15,CC(=O)NCCC(=O)NCc1c(O)c(=O)cc(C)n1C,-1.7
16,Clc1cc2c(c(Cl)c1Cl)Oc1c(Cl)ccc(Cl)c1O2,6.24
17,Cc1cccc(N2CC(N3CCOCC3)=CC2=O)c1,1.5
18,CCC(C)C(NC(=O)C1CCCN1)C(=O)O (stereo not drawn) (H-Pro-Ile-OH; configuration not given here),-2.56
19,CC(NC(=O)C(N)Cc1c[nH]c2ccccc12)C(=O)O (stereo not given),-1.98
20,O=C1N=C(N2CCOCC2)CN1Cc1ccc(Br)cc1,1.4
21,CCCc1c2c(cc3c(=O)cc(C(=O)O)oc13)CCCC2,4.2
